# Reference: patent publication US20250072433A1, “ORGANIC CONCENTRATED VITAMINE-PHYTOHORMONE WITH NATURAL BIO-STIMULANT PROPERTIES AS FERTILIZER CONCENTRATED EXTRACT OF DUCKWEED ARACEA FAMILY OF PLANTS FORMALY KNOWN AS LEMNACEAE SINGLE OR COMBINED SPECIES THAT CAN INCLUDE ALSO COMPOUNDED MULTIPLE FORMULATED AQUATIC PLANTS EXTRACTS TO NATURALY …” (priority 2021, published 2025)
# “Also recorded” adds a separate entry of the source.
# System: mung bean hypocotyl cuttings
# Test: Comparative mung bean bioassay: rooting response of stem cuttings versus seaweed products and IAA/IBA standards (Example 6)
# Type: in vivo
# Settings: for pH: 30 mg/L; for stem growth, length: 1% dilution; for concentration with the higher number of roots developed: range 0 to 30 mg/L
# Source text: A composition comparative study further embodiment described in detail in Example 6. to determine the concertation of Auxins in relation to Standard indole-3-Butiric acid (IBA) and indole-3-acetic (IAA) embodied in the examples Duckweed Biotech product is a combination of three aquatic plants of the Aracea family, which is compared with commercial seaweed products: Product (1) “K” and Product (2) “M”. The dilutions were made from the liquid concentrated products and the Duckweed Biotech from a natural concentrate extraction of three duckweed species. The equivalent phytohormone activity of IAA and IBA was established by the number of roots to the corresponding treatment dilution and interpolating the number of roots to the corresponding hormone concentration to obtain the total activity in mg/L of the commercial product.
# Two commercial giant brown kelp seaweed products, Product (1) “K” made of Ecklonia maxima and Product (2) “M” made of Ascophyllum nodosum were compared with the Duckweed Biotech Product “D” made of a combination of Duckweed aquatic plants of the Araceae family of plants formally known as Lemnaceae family of plants. For the test, a series of dilutions from 0% to 50% were made from the concentrated commercial products.
# The preparation of standards was performed using a concentration range of 0, 1, 2, 5, 10, 15, 20 and 30 mg/L of indole-3-butyric acid (IBA) and indole-3-acetic acid (IAA) as shown in Table 20. A dose growth response curve for rooting ability was produced using these auxins.
# The mung bean bioassay was used to evaluate plant growth and rooting stimulation response of three products: Duckweed Biotech Product “D”, Product (1) “K” and Product (2) “M”.
# The seeds of mung bean seeds were rinse thoroughly with water and soak for […]. in DI water. 2. The seeds were planted in microgreen trays for germination process at 26° C. After 8 days, uniform hypocotyl cuttings with 8 cm length with 2 primary leaves and without cotyledon were transferred to the treatment vials. The cuttings are rinsed with DI water and then soak in 20 mL treatment test solutions for 8 hr. The treatment solutions include Duckweed Biotech Product “D”, Product (1) “K”, Product (2) “M”, indole-3-acetic acid (IAA), and indole-3-butyric acid (IBA). The treatments are follows: • IBA & IAA concentrations: 0, 1, 2, 5, 10, 15, 20 and 30 mg/L • Duckweed Biotech Product “D” Conc.: 0, 0.5, 1, 2, 5, 10, 20 and 50% • Product (1) “K” Conc.: 0, 0.5, 1, 2, 5, 10, 20 and 50% • Product (2) “M” Conc.: 0, 0.5, 1, 2, 5, 10, 20 and 50%
# 3 After the treatments, the seedling base cuttings were rinsed with DI water and transferred to clean vials with glass beads containing 60 mL of DI water for 8 days. Two cuttings were placed in each vial and two vials were used for each treatment. The vials are left at 28±3° C. ambient air temperature and under lighting at 135 μmol photons m^−2 s^−1 in a 16-h day/8-h night cycle. The humidity is maintained over 60%.
# 4. After 8 days, the number of roots per hypocotyl was recorded. The plant quality and stem length were also evaluated. The data collected was organized and analyzed using Microsoft Excel
# The plant growth and rooting response of each treatment were recorded after 8 days. The rooting response was evaluated based on number of roots developed per cutting. The average number of roots of three cuttings per treatment was used to determine the effectiveness of the treatments. Plant quality and stem length were also recorded. […] The plants with higher rooting response were found at 2% with duckweed treatment with 67 roots. Whereas Product (1) “K” at 20% dilution stimulated root production with 46 roots and Product (2) “M” at 2% dilution with 32 roots. A decline of rooting stimulation was found at 50% dilution for all evaluated products (FIG. 35 & FIG. 36) that coincides with previous research literature for brown kelp extract products. […]
SMILES,pH,"stem growth, length [cm]",concentration with the higher number of roots developed [mg/L],"root formation, IBA compared with IAA (in vivo)"
"O=C(O)Cc1c[nH]c2ccccc12 [IAA, indole-3-acetic acid]",6.92,15,30,
"O=C(O)CCCc1c[nH]c2ccccc12 [IBA, indole-3-butyric acid]",6.53,15,30,stimulated more roots in all concentrated treatments than IAA; also recorded: more effective than indol-3-acetic acid (IAA) in root development
